Laboratory results as given in patent publication US10221163B2 (priority 2015, dated 2019).
Like-named read-outs stand apart in the source and are kept apart here.

Key:
IMP-1 = IMP-1 (Serratia marcescens, UniProt P52699); experiment: biochemical; assay type: biochemical; conditions: fluorescence assay, CCF2-FA substrate, 2 pM enzyme, 2 hours at 25° C.; read-out: IMP-1 IC50
Outline: (§1)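 IC50 values derive from 4-parameter fits of percent inhibition against inhibitor concentration on semi-log axes. Activity was monitored by fluorescence with the CCF2-FA substrate after a 2-hour, 25° C incubation of compound, enzyme and substrate.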

NDM-1 = NDM-1 (Klebsiella pneumoniae, UniProt C7C422); experiment: biochemical; assay type: biochemical; conditions: fluorescence assay, CCF2-FA substrate, 1 pM enzyme, 2 hours at 25° C.; read-out: NDM-1 IC50
NDM-1, sequence (C7C422 whole entry, looked up, species assumed): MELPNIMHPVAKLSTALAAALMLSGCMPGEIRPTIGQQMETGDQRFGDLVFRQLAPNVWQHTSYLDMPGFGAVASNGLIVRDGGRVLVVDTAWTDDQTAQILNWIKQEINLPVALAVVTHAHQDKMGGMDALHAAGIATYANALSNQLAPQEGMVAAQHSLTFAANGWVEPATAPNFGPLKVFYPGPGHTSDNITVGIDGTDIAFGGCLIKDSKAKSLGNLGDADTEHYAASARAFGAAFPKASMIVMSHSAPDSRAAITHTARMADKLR
Outline: as §1

VIM-1 = VIM-1 (Pseudomonas aeruginosa (strain ATCC 15692 / DSM 22644 / CIP 104116 / JCM 14847 / LMG 12228 / 1C / PRS 101 / PAO1), UniProt A0A0F7KYQ8); experiment: biochemical; conditions: CCF2-FA substrate, 30 pM enzyme, 2 hours at 25° C.
Outline: as §1

[1] = test system: Escherichia coli expressing NDM-1 (CLB30005, CLB30016); assay type: cell-based; conditions: with imipenem 1 μg/ml; 95% inhibition of bacterial growth
Outline: (§2)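 Clinical isolates (E. coli NDM-1, S. marcescens IMP-1, K. pneumoniae VIM-1) were diluted 1:100 from saline suspension into 1.1×CAMHB and exposed to test compound with imipenem at 1 μg/ml. Plates were incubated at 35° C for 22 hours to 24 hours, and growth was read by absorbance.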

[2] = test system: Klebsiella pneumoniae expressing VIM-1 (IHMA599644); assay type: cell-based; conditions: with imipenem 1 μg/ml; 95% inhibition of bacterial growth
Outline: as §2

[3] = test system: Serratia marcescens expressing IMP-1 (CL5741); assay type: cell-based; conditions: with imipenem 1 μg/ml; 95% inhibition of bacterial growth
Outline: as §2

[4] = test system: Pseudomonas aeruginosa efflux+ (MB9798), IMP-1; assay type: cell-based; conditions: concentration restoring susceptibility to imipenem at 2 μg/mL in the presence of a class A, C, D serine β-lactamase inhibitor closely related to relebactam
Outline: (§3)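 P. aeruginosa PAO1-derived IMP-1 strains, efflux+ MB9798 and efflux− MB9799, tested by standard microbroth MIC with imipenem and/or ceftazidime fixed, usually at CLSI breakpoint, plus fixed class A/C β-lactamase inhibitor against AmpC. Inhibitor titrated; concentration restoring susceptibility recorded; MB9798/MB9799 fold difference indicates efflux.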

[5] = test system: Pseudomonas aeruginosa efflux− (MB9799), IMP-1; assay type: cell-based; conditions: concentration restoring susceptibility to imipenem at 2 μg/mL in the presence of a class A, C, D serine β-lactamase inhibitor closely related to relebactam
Outline: as §3

[6] = test system: Pseudomonas aeruginosa MB9798 vs MB9799; conditions: ratio MITC95 PA_9798/MITC95 PA_9799
Outline: as §3

[7] = fluorescence assay, read-out: VIM-1 IC50

IMP-1, sequence (P52699 whole entry, looked up, species assumed): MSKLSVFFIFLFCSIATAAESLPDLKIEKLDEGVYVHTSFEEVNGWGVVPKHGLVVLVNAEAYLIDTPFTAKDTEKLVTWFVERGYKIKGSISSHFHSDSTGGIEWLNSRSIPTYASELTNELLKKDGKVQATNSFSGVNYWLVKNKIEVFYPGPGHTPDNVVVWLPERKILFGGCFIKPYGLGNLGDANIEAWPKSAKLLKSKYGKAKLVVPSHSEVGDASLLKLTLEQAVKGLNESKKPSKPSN

SMILES | IC50 (IMP-1) [nM] | IC50 (NDM-1) [nM] | IC50 (VIM-1; [7]) [nM] | Escherichia coli expressing NDM-1 (CLB30016) MITC95 [1] [µM] | Klebsiella pneumoniae expressing VIM-1 (IHMA599644) MITC95 [2] [µM] | Serratia marcescens expressing IMP-1 (CL5741) MITC95 [3] [µM] | P. aeruginosa expressing IMP-1, efflux + (MB9798) MITC95 [4] [µM] | P. aeruginosa expressing IMP-1, efflux − (MB9799) MITC95 [5] [µM] | Efflux ratio [6] | IC50 (VIM-1; VIM-1 IC50, fluorescence assay) [nM]
Nc1nc2c(-c3ccc(S(=O)(=O)NCCN4CCNC(=O)C4)c(S(N)(=O)=O)c3-c3nnn[nH]3)cccc2s1 [Example 15, 4-(2-amino-1,3-benzothiazol-4-yl)-N1-[2-(3-oxopiperazin-1-yl)ethyl]-3-(1H-tetrazol-5-yl)benzene-1,2-disulfonamide] | 0.451 | 0.0926 | 0.394 | 50 | 25 | 12.5 | 12.5 | 12.5 | 1.00 | –
CN(C)CC(F)(F)CNS(=O)(=O)c1ccc(-c2cccc3sc(N)nc23)c(-c2nnn[nH]2)c1S(N)(=O)=O [Example 16, 4-(2-amino-1,3-benzothiazol-4-yl)-N1-[3-(dimethylamino)-2,2-difluoropropyl]-3-(1H-tetrazol-5-yl)benzene-1,2-disulfonamide] | 0.442 | 0.0921 | 0.461 | 25 | 25 | 12.5 | 100 | 6.25 | 16.00 | –
CN1CCOC(CNS(=O)(=O)c2ccc(-c3cccc4sc(N)nc34)c(-c3nnn[nH]3)c2S(N)(=O)=O)C1 (stereo not drawn) [Example 17, 4-(2-amino-1,3-benzothiazol-4-yl)-N1-[(4-methylmorpholin-2-yl)methyl]-3-(1H-tetrazol-5-yl)benzene-1,2-disulfonamide] | 0.43 | 0.0889 | 0.41 | 12.5 | 12.5 | 6.25 | 12.5 | 6.25 | 2.00 | –
CN1CCCC(NS(=O)(=O)c2ccc(-c3cccc4sc(N)nc34)c(-c3nnn[nH]3)c2S(N)(=O)=O)C1 (stereo not drawn) [Example 18, 4-(2-amino-1,3-benzothiazol-4-yl)-N1-(1-methylpiperidin-3-yl)-3-(1H-tetrazol-5-yl)benzene-1,2-disulfonamide] | 0.268 | 0.0488 | 0.271 | 6.25 | 6.25 | 3.125 | 3.125 | 3.125 | 1.00 | –
Nc1nc2c(-c3ccc(S(=O)(=O)NCC4CCC(=O)N4)c(S(N)(=O)=O)c3-c3nnn[nH]3)cccc2s1 (stereo not drawn) [Example 19, 4-(2-amino-1,3-benzothiazol-4-yl)-N1-[(5-oxopyrrolidin-2-yl)methyl]-3-(1H-tetrazol-5-yl)benzene-1,2-disulfonamide] | 0.486 | 0.0953 | 0.335 | 50 | 25 | 6.25 | 6.25 | 6.25 | 1.00 | –
Cn1cnc(CNS(=O)(=O)c2ccc(-c3cccc4sc(N)nc34)c(-c3nnn[nH]3)c2S(N)(=O)=O)n1 [Example 20, 4-(2-amino-1,3-benzothiazol-4-yl)-N^1-[(1-methyl-1H-1,2,4-triazol-3-yl)methyl]-3-(1H-tetrazol-5-yl)benzene-1,2-disulfonamide] | 0.817 | 0.0973 | 0.494 | 25 | 25 | 6.25 | 6.25 | 6.25 | 1.00 | –
CN(C)CCNS(=O)(=O)c1ccc(-c2cccc3sc(N)nc23)c(-c2nnn[nH]2)c1S(N)(=O)=O [Example 22, 4-(2-amino-1,3-benzothiazol-4-yl)-N^1-[2-(dimethylamino)ethyl]-3-(1H-tetrazol-5-yl)benzene-1,2-disulfonamide] | 0.413 | 0.0348 | 0.233 | 6.25 | 3.125 | 3.125 | 1.563 | 1.563 | 1.00 | –
CNC(=O)CNS(=O)(=O)c1ccc(-c2cccc3sc(N)nc23)c(-c2nnn[nH]2)c1S(N)(=O)=O [Example 23, N^2-{[4-(2-amino-1,3-benzothiazol-4-yl)-2-sulfamoyl-3-(1H-tetrazol-5-yl)phenyl]sulfonyl}-N-methylglycinamide] | 0.294 | 0.0511 | – | 25 | 12.5 | 6.25 | 3.125 | 3.125 | 1.00 | 0.224
COCCNS(=O)(=O)c1ccc(-c2cccc3sc(N)nc23)c(-c2nnn[nH]2)c1S(N)(=O)=O [Example 24, 4-(2-amino-1,3-benzothiazol-4-yl)-N^1-(2-methoxyethyl)-3-(1H-tetrazol-5-yl)benzene-1,2-disulfonamide] | 0.235 | 0.0732 | 0.205 | 25 | 12.5 | 3.125 | 12.5 | 3.125 | 4.00 | –
Nc1nc2c(-c3ccc(S(=O)(=O)N4CCC(CO)CC4)c(S(N)(=O)=O)c3-c3nnn[nH]3)cccc2s1 [Example 25, 3-(2-amino-1,3-benzothiazol-4-yl)-6-{[4-(hydroxymethyl)piperidin-1-yl]sulfonyl}-2-(1H-tetrazol-5-yl)benzenesulfonamide] | 2.24 | 3.02 | 4.52 | 25 | 25 | 6.25 | 50 | 3.125 | 16.00 | –
CN(C)C1CCN(S(=O)(=O)c2ccc(-c3cccc4sc(N)nc34)c(-c3nnn[nH]3)c2S(N)(=O)=O)CC1 [Example 26, 3-(2-amino-1,3-benzothiazol-4-yl)-6-{[4-(dimethylamino)piperidin-1-yl]sulfonyl}-2-(1H-tetrazol-5-yl)benzenesulfonamide] | 1.15 | 0.974 | 1.66 | 12.5 | 12.5 | 3.125 | 6.25 | 3.125 | 2.00 | –
